{"source": "patent US5436229A", "about": "“Bisulfite adducts of arginine aldehydes” (Eli Lilly and Company, priority 1994, dated 1995)", "key": {"[1]": {"system": "human plasma", "test": "Human plasma anticoagulation, prothrombin time (PT)", "assay_type": "biochemical", "in_short": "(§1)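 Compounds added across a wide concentration range to human plasma; APTT, PT and TT clotting times measured on a coagulation instrument, bovine thrombin used for plasma assays. Concentration doubling clotting time estimated by linear extrapolation.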"}, "[2]": {"target": "T1, Bovine trypsin (Bos taurus, UniProt P00760)", "T1 construct": "Bovine trypsin is purchased from Worthington Biochemicals; purchased Worthington Biochemicals, Freehold, N.J", "T1 sequence (P00760 24-246)": "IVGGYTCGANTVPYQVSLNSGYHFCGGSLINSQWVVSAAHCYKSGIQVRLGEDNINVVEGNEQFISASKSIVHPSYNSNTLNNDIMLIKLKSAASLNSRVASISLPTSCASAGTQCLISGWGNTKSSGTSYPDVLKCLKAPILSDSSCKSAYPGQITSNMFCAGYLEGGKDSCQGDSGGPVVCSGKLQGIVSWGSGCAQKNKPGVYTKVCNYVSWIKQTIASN", "test": "Serine protease inhibition (Kass), trypsin", "assay_type": "biochemical", "in_short": "(§2)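 Chromogenic p-nitroanilide substrate assays run as for human thrombin; trypsin with N-Benzoyl-Phe-Val-Arg-p-nitroanilide, human factor Xa with N-Benzoyl-Ile-Glu-Gly-Arg-p-nitroanilide. Values are association constants (Kass).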"}, "[3]": {"test": "Index of Bioavailability (plasma TT AUC, oral vs i.v.)", "assay_type": "in vivo", "conditions": "rats, oral vs i.v. bolus", "from_the_text": "Assays are done in duplicate and averaged.\nEach sample population represents alternating sequential time points."}, "[4]": {"target": "human thrombin (Homo sapiens, UniProt P00734)", "test": "Thrombin amidase inhibition (Kass), chromogenic substrate", "assay_type": "biochemical", "in_short": "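Kass, in liter per mole, was averaged over several compound concentrations, using free thrombin from a rate standard curve and free inhibitor as added minus bound. Hydrolysis of chromogenic substrate (0.25 mg/ml solution) was monitored at 405 nm with human thrombin (8 NIH units/ml solution) in Tris-NaCl buffer pH 7.4, compound in 50% aqueous methanol.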"}, "[5]": {"system": "human plasma", "test": "Human plasma anticoagulation, thrombin time (TT)", "assay_type": "biochemical", "in_short": "as §1"}, "[6]": {"system": "human plasma", "test": "Human plasma anticoagulation, activated partial thromboplastin time (APTT)", "assay_type": "biochemical", "in_short": "as §1"}, "[7]": {"target": "T2, Human plasmin (Homo sapiens, UniProt P00747)", "T2 construct": "Human plasmin is purchased from Boehringer Mannheim; purchased Boehringer Mannheim, Indianapolis, Ind", "T2 sequence (P00747 581-810 limits assumed)": "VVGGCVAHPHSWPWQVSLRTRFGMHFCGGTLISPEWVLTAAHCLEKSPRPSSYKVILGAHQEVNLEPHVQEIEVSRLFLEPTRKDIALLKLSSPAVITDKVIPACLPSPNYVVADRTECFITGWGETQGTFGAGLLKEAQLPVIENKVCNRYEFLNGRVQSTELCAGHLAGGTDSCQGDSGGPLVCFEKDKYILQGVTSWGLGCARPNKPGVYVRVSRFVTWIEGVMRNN", "T2 sequence (P00747 97-580 partner limits assumed)": "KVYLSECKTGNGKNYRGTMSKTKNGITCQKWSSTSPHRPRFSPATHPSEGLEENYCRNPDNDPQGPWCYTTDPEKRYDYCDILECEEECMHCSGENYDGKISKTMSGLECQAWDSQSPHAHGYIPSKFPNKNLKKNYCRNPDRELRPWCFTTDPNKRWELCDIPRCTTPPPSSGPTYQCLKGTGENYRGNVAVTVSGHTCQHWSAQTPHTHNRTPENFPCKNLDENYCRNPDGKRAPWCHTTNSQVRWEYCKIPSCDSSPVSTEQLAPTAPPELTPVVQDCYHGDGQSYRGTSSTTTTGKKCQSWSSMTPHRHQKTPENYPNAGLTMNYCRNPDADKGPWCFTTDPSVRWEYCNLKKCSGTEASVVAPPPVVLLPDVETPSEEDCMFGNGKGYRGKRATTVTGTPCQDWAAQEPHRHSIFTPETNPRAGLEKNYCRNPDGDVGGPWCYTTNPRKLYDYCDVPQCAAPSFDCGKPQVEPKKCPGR", "test": "Serine protease inhibition (Kass), plasmin", "assay_type": "biochemical", "in_short": "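Kass values come from the thrombin chromogenic procedure applied to fibrinolytic proteases. t-PA (nt-PA single chain, or mt-PA6) paired with substrate H-D-Ile-Pro-Arg-p-nitroanilide; human plasmin paired with H-D-Val-Leu-Lys-p-nitroanilide.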"}, "[8]": {"target": "T3, tissue plasminogen activator (t-PA) (Homo sapiens, UniProt P00750)", "T3 construct": "purchased American Diagnostica, Greenwich, Conn", "T3 sequence (P00750 36-562)": "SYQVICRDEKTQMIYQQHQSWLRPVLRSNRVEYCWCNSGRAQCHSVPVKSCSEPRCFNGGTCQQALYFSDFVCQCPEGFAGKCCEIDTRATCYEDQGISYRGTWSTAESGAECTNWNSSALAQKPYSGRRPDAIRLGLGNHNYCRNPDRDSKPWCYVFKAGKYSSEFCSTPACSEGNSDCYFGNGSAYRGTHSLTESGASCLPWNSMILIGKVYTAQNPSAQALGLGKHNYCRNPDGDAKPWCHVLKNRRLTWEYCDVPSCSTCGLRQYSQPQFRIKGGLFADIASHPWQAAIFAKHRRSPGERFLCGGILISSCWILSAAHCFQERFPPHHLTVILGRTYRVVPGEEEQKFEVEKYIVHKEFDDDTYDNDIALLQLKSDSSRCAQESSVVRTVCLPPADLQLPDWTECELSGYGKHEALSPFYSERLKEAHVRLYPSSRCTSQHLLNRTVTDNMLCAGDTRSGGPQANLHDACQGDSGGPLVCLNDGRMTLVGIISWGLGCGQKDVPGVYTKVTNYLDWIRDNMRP", "test": "Serine protease inhibition (Kass), t-PA", "assay_type": "biochemical"}, "[9]": {"target": "T4, factor Xa (Homo sapiens, UniProt P00742)", "T4 construct": "Human factors X, Xa, IXa, XIa, and XIIa are purchased from Enzyme Research Laboratories; purchased Enzyme Research Laboratories, South Bend, Ind", "T4 sequence (P00742 235-488 limits assumed)": "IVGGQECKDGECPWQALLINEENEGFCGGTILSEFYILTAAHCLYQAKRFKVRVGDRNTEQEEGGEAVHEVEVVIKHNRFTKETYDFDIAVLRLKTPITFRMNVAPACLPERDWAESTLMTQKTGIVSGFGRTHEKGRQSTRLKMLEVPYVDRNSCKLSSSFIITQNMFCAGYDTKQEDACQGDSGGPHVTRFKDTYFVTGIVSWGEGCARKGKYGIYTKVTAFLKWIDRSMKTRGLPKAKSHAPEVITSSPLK", "T4 sequence (P00742 41-179 partner limits assumed)": "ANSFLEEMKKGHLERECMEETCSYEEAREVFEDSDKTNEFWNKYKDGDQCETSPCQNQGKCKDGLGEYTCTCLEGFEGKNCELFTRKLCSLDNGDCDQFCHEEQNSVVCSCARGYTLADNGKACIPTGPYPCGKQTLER", "test": "Serine protease inhibition (Kass), factor Xa", "assay_type": "biochemical", "in_short": "as §2"}}, "note": "Non-standard residues stand in square brackets, D forms with d. Residues, ends and D or L forms follow the SMILES beside them. dCha = N[C@H](CC1CCCCC1)C(=O)O"}
{"smiles": "Cl.N=C(N)NCCC[C@@H](C=O)NC(=O)[C@@H]1CCCN1C(=O)[C@@H](Cc1ccccc1)NS(=O)(=O)c1ccccc1", "note": "[Example 57, N-(phenylsulfonyl)-D-phenylalanyl-L-Prolinyl-L-Arginine Aldehyde Hydrochloride]", "values": [{"measurement": "2 × Clotting time PT", "setting": "[1]", "value": 930, "unit": "ng/mL"}, {"measurement": "Kass Trypsin", "setting": "[2]", "value": 180, "unit": "L/mol × 10^6"}, {"measurement": "Percent Relative Activity (Index of Bioavailability)", "setting": "[3]", "value": 3, "unit": "%"}, {"measurement": "Kass Human Thrombin", "setting": "[4]", "value": 270, "unit": "L/mol × 10^6"}, {"measurement": "2 × Clotting time TT", "setting": "[5]", "value": 14, "unit": "ng/mL"}, {"measurement": "2 × Clotting time APTT", "setting": "[6]", "value": 450, "unit": "ng/mL"}, {"measurement": "Kass Plasmin", "setting": "[7]", "value": 19, "unit": "L/mol × 10^6"}, {"measurement": "Kass t-PA", "setting": "[8]", "value": 2.3, "unit": "L/mol × 10^6"}, {"measurement": "Kass Xa", "setting": "[9]", "value": 3.6, "unit": "L/mol × 10^6"}]}
{"smiles": "Cl.N=C(N)NCCC[C@@H](C=O)NC(=O)[C@@H]1CCCN1C(=O)[C@@H](Cc1ccccc1)NS(=O)(=O)c1ccc(F)cc1F", "note": "[Example 58, N-(2,4-difluorophenylsulfonyl)-D-phenylalanyl-L-Prolinyl-L-Arginine Aldehyde Hydrochloride]", "values": [{"measurement": "2 × Clotting time PT", "setting": "[1]", "value": 940, "unit": "ng/mL"}, {"measurement": "Kass Trypsin", "setting": "[2]", "value": 160, "unit": "L/mol × 10^6"}, {"measurement": "Percent Relative Activity (Index of Bioavailability)", "setting": "[3]", "value": 6, "unit": "%"}, {"measurement": "Kass Human Thrombin", "setting": "[4]", "value": 230, "unit": "L/mol × 10^6"}, {"measurement": "2 × Clotting time TT", "setting": "[5]", "value": 21, "unit": "ng/mL"}, {"measurement": "2 × Clotting time APTT", "setting": "[6]", "value": 350, "unit": "ng/mL"}, {"measurement": "Kass Plasmin", "setting": "[7]", "value": 25, "unit": "L/mol × 10^6"}, {"measurement": "Kass t-PA", "setting": "[8]", "value": 2.4, "unit": "L/mol × 10^6"}, {"measurement": "Kass Xa", "setting": "[9]", "value": 11, "unit": "L/mol × 10^6"}]}
{"smiles": "Cl.N=C(N)NCCC[C@@H](C=O)NC(=O)[C@@H]1CCCN1C(=O)[C@@H](Cc1ccccc1)NS(=O)(=O)c1ccc(C(=O)O)cc1", "note": "[Example 62, N-(4-carboxyphenylsulfonyl)-D-phenylalanyl-L-Prolinyl-L-Arginine Aldehyde Hydrochloride]", "values": [{"measurement": "2 × Clotting time PT", "setting": "[1]", "value": "3,000 ng/mL"}, {"measurement": "Kass Trypsin", "setting": "[2]", "value": 43, "unit": "L/mol × 10^6"}, {"measurement": "Percent Relative Activity (Index of Bioavailability)", "setting": "[3]", "value": 13, "unit": "%"}, {"measurement": "Kass Human Thrombin", "setting": "[4]", "value": 70, "unit": "L/mol × 10^6"}, {"measurement": "2 × Clotting time TT", "setting": "[5]", "value": 120, "unit": "ng/mL"}, {"measurement": "2 × Clotting time APTT", "setting": "[6]", "value": "1,200 ng/mL"}, {"measurement": "Kass Plasmin", "setting": "[7]", "value": 7.0, "unit": "L/mol × 10^6"}, {"measurement": "Kass t-PA", "setting": "[8]", "value": 1.1, "unit": "L/mol × 10^6"}, {"measurement": "Kass Xa", "setting": "[9]", "value": 2.0, "unit": "L/mol × 10^6"}]}
{"smiles": "CCS(=O)(=O)N[C@H](CC1CCCCC1)C(=O)N1CCC[C@H]1C(=O)N[C@H](C=O)CCCNC(=N)N.Cl", "note": "[Example 65, N-(ethylsulfonyl)-D-cyclohexylalanyl-L-Prolinyl-L-Arginine Aldehyde Hydrochloride]", "values": [{"measurement": "2 × Clotting time PT", "setting": "[1]", "value": 730, "unit": "ng/mL"}, {"measurement": "Kass Trypsin", "setting": "[2]", "value": 200, "unit": "L/mol × 10^6"}, {"measurement": "Percent Relative Activity (Index of Bioavailability)", "setting": "[3]", "value": 19, "unit": "%"}, {"measurement": "Kass Human Thrombin", "setting": "[4]", "value": 550, "unit": "L/mol × 10^6"}, {"measurement": "2 × Clotting time TT", "setting": "[5]", "value": 25, "unit": "ng/mL"}, {"measurement": "2 × Clotting time APTT", "setting": "[6]", "value": 260, "unit": "ng/mL"}, {"measurement": "Kass Plasmin", "setting": "[7]", "value": 45, "unit": "L/mol × 10^6"}, {"measurement": "Kass t-PA", "setting": "[8]", "value": 0.73, "unit": "L/mol × 10^6"}, {"measurement": "Kass Xa", "setting": "[9]", "value": 20, "unit": "L/mol × 10^6"}]}
{"smiles": "CC(=O)N[C@H](CC1CCCCC1)C(=O)N1CCC[C@H]1C(=O)N[C@H](C=O)CCCNC(=N)N.Cl", "note": "[Example 72, N-(acetyl)-D-cyclohexylalanyl-L-Prolinyl-L-Arginine Aldehyde Hydrochloride] (Ac-[dCha]-Pro-Arg-aldehyde)", "values": [{"measurement": "2 × Clotting time PT", "setting": "[1]", "value": "3,500 ng/mL"}, {"measurement": "Kass Trypsin", "setting": "[2]", "value": 12, "unit": "L/mol × 10^6"}, {"measurement": "Percent Relative Activity (Index of Bioavailability)", "setting": "[3]", "value": 9, "unit": "%"}, {"measurement": "Kass Human Thrombin", "setting": "[4]", "value": 26, "unit": "L/mol × 10^6"}, {"measurement": "2 × Clotting time TT", "setting": "[5]", "value": 92, "unit": "ng/mL"}, {"measurement": "2 × Clotting time APTT", "setting": "[6]", "value": "1,900 ng/mL"}, {"measurement": "Kass Plasmin", "setting": "[7]", "value": 0.61, "unit": "L/mol × 10^6"}, {"measurement": "Kass t-PA", "setting": "[8]", "value": 0.035, "unit": "L/mol × 10^6"}, {"measurement": "Kass Xa", "setting": "[9]", "value": 1.1, "unit": "L/mol × 10^6"}]}
{"smiles": "Cl.N=C(N)NCCC[C@@H](C=O)NC(=O)[C@@H]1CCCN1C(=O)[C@@H](Cc1ccccc1)NCC1CCCCC1", "note": "[Example 74, N-(cyclohexylmethyl)-D-phenylalanyl-L-Prolinyl-L-Arginine Aldehyde Hydrochloride]", "values": [{"measurement": "2 × Clotting time PT", "setting": "[1]", "value": "1,200 ng/mL"}, {"measurement": "Kass Trypsin", "setting": "[2]", "value": 69, "unit": "L/mol × 10^6"}, {"measurement": "Percent Relative Activity (Index of Bioavailability)", "setting": "[3]", "value": 1, "unit": "%"}, {"measurement": "Kass Human Thrombin", "setting": "[4]", "value": 480, "unit": "L/mol × 10^6"}, {"measurement": "2 × Clotting time TT", "setting": "[5]", "value": 16, "unit": "ng/mL"}, {"measurement": "2 × Clotting time APTT", "setting": "[6]", "value": 860, "unit": "ng/mL"}, {"measurement": "Kass Plasmin", "setting": "[7]", "value": 0.49, "unit": "L/mol × 10^6"}, {"measurement": "Kass t-PA", "setting": "[8]", "value": 0.046, "unit": "L/mol × 10^6"}, {"measurement": "Kass Xa", "setting": "[9]", "value": 0.11, "unit": "L/mol × 10^6"}]}
{"smiles": "CCOC(=O)N[C@H](Cc1ccccc1)C(=O)N1CCC[C@H]1C(=O)N[C@H](C=O)CCCNC(=N)N.Cl", "note": "[Example 77, N-(ethoxycarbonyl)-D-phenylalanyl-L-Prolinyl-L-Arginine Aldehyde Hydrochloride]", "values": [{"measurement": "2 × Clotting time PT", "setting": "[1]", "value": "2,000 ng/mL"}, {"measurement": "Kass Trypsin", "setting": "[2]", "value": 240, "unit": "L/mol × 10^6"}, {"measurement": "Percent Relative Activity (Index of Bioavailability)", "setting": "[3]", "value": 14, "unit": "%"}, {"measurement": "Kass Human Thrombin", "setting": "[4]", "value": 170, "unit": "L/mol × 10^6"}, {"measurement": "2 × Clotting time TT", "setting": "[5]", "value": 22, "unit": "ng/mL"}, {"measurement": "2 × Clotting time APTT", "setting": "[6]", "value": 390, "unit": "ng/mL"}, {"measurement": "Kass Plasmin", "setting": "[7]", "value": 16, "unit": "L/mol × 10^6"}, {"measurement": "Kass t-PA", "setting": "[8]", "value": 2.5, "unit": "L/mol × 10^6"}, {"measurement": "Kass Xa", "setting": "[9]", "value": 2.3, "unit": "L/mol × 10^6"}]}
